The source of these data is US20200131669A1, “CYCLIC PEPTIDE COMPOUND HAVING HIGH MEMBRANE PERMEABILITY, AND LIBRARY CONTAINING SAME” (Chugai Seiyaku Kabushiki Kaisha, priority 2017, published 2020).

Starred links: 1 amine or outer side, 2 acyl side, 3 side chain; linkers in the order of their positions; H or OH if unused. Positions of bridges follow the written chain, without caps; N, C: chain ends. Non-standard residues stand in square brackets, D forms with d. Residues, ends and D or L forms follow the SMILES beside them. *: point of attachment. X10 = O=C([C@H]1C[C@@H](N2CCC(F)(F)CC2)CN1[*:1])[*:2]; X13 = O=C([C@@H]1C[C@H](N2CCC(F)(F)CC2)CN1[*:1])[*:2]; NMeAla(4-thiazolyl) = CN[C@@H](Cc1cscn1)C(=O)O; Phe(4-CHF2) = N[C@@H](Cc1ccc(C(F)F)cc1)C(=O)O; NMePhe(3-Cl) = CN[C@@H](Cc1cccc(Cl)c1)C(=O)O; X12 = CCCC[C@@H](O)[C@H](N[*:1])C(=O)[*:2]; X8 = O=C(CN(CCN1CCC(F)(F)CC1)[*:1])[*:2]; Ethyl(2-morpholino) = C1CN(CC*)CCO1; NMeF = CN[C@@H](Cc1ccccc1)C(=O)O; NMeGABA = CN(CCCC(=O)[*:2])[*:1]; NMeI = CC[C@H](C)[C@H](NC)C(=O)O; NMeL = CN[C@@H](CC(C)C)C(=O)O; dNMeL = CN[C@H](CC(C)C)C(=O)O; Propyl(2R-OH) = C[C@@H](O)C*; dNMeAbu = CC[C@@H](NC)C(=O)O; NMeV = CN[C@H](C(=O)O)C(C)C; NMeAbu = CC[C@H](NC)C(=O)O; NMeA = CN[C@@H](C)C(=O)O; Piperidide = C1CCN(*)CC1; dAbu = CC[C@@H](N)C(=O)O; NBuGly = CCCCNCC(=O)O; Ethyl(2-OH) = OCC*; Sar = CNCC(=O)O; tBu = CC(C)(C)*; CHF2 = FC(F)*

This data set concerns Caco-2 cells. Put plainly: Caco-2 membrane permeability, improved method as used in the following Examples (96-well, 20 to 24 h preincubation). It is filed as in vitro ADME. The settings on record: human, Caco-2, 180 min. In a few lines:
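Papp (cm/sec) was derived from LC/MS of basal samples collected 180 min after apical dosing in FaSSIF/HBSS pH 6.0 with 1% DMSO, against a basal HBSS pH 7.4 receiver containing 4% BSA. Three-week Caco-2 cultures were first preincubated with compound in DMEM+FaSSIF at 37 °C for 20–24 h.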
`CC(C)C[C@H]1C(=O)N[C@H](C(=O)N2CCCCC2)CC(=O)N(C)CC(=O)N(C)[C@@H](Cc2ccccc2)C(=O)N[C@@H](C(C)C)C(=O)N(C)[C@@H](CC(C)C)C(=O)N[C@@H]([C@@H](C)O)C(=O)N(CCN2CCC(F)(F)CC2)CC(=O)N(C)[C@@H](Cc2ccccc2)C(=O)N(C)[C@@H](CC(C)C)C(=O)N[C@@H](COC(C)(C)C)C(=O)N1C` [pd455] ([Sar][NMeF]V[NMeL]T[X8][NMeF][NMeL]S(tBu)[NMeL]D-Piperidide; lactam N-11): the Caco-2 was 1.1e-06 cm/s.
As for `CC(C)C[C@H]1C(=O)N[C@H](C(=O)N2CCCCC2)CC(=O)N[C@H](C)C(=O)N2C[C@H](N3CCC(F)(F)CC3)C[C@@H]2C(=O)N[C@@H](COC(C)(C)C)C(=O)N(C)[C@@H](CC(C)C)C(=O)N(C)[C@@H](CC(C)C)C(=O)N(C)[C@@H](CC(C)C)C(=O)N[C@@H]([C@@H](C)O)C(=O)N(C)[C@@H](Cc2ccccc2)C(=O)N[C@@H](Cc2ccccc2)C(=O)N1C` [pd457] ([dA][X10]S(tBu)[NMeL][NMeL][NMeL]T[NMeF]F[NMeL]D-Piperidide; lactam N-11), the figure is 1.1e-06 cm/s.
`CC[C@H]1NC(=O)C[C@@H](C(=O)N2CCCCC2)NC(=O)[C@H](CC(C)C)N(C)C(=O)[C@H](Cc2ccccc2)NC(=O)[C@@H]2C[C@H](N3CCC(F)(F)CC3)CN2C(=O)[C@H]([C@@H](C)O)NC(=O)[C@H](CC(C)C)N(C)C(=O)[C@H](CC(C)C)NC(=O)[C@H](CC(C)C)N(C)C(=O)[C@H](COC(C)(C)C)NC(=O)[C@H](CC(C)C)N(C)C1=O` [pd462] ([dAbu][NMeL]S(tBu)[NMeL]L[NMeL]T[X13]F[NMeL]D-Piperidide; lactam N-11) displayed a Caco-2 of 1.1e-06 cm/s.
Turning to `CCCCN1CC(=O)N(C)[C@@H](CC(C)C)C(=O)N[C@H](C(=O)N2CCCCC2)CC(=O)N(C)[C@@H](CC(C)C)C(=O)N[C@@H](CC(C)C)C(=O)N(C)[C@@H](CC(C)C)C(=O)N(C)[C@@H](Cc2cscn2)C(=O)N[C@@H](CC(C)C)C(=O)N(C)[C@@H](Cc2ccccc2)C(=O)N(C)[C@@H]([C@@H](C)CC)C(=O)N[C@@H](CCC(=O)NC)C1=O` [pd465] ([NMeL]L[NMeL][NMeAla(4-thiazolyl)]L[NMeF][NMeI]E(NHMe)[NBuGly][NMeL]D-Piperidide; lactam N-11), the Caco-2 came out at 1.1e-06 cm/s.
As for `CCCC[C@@H](O)[C@@H]1NC(=O)[C@H](CC(C)C)N(C)C(=O)[C@H](CC(C)C)NC(=O)[C@H](Cc2ccccc2)N(C)C(=O)[C@@H](C)NC(=O)C[C@@H](C(=O)N2CCCCC2)NC(=O)[C@H](C)N(C)C(=O)[C@H](Cc2ccccc2)N(C)C(=O)[C@H](COC(C)(C)C)NC(=O)[C@H](CC(C)C)N(C)C(=O)CN(C)C1=O` [pd466] ([dA][NMeF]L[NMeL][X12][Sar][NMeL]S(tBu)[NMeF][NMeA]D-Piperidide; lactam N-11), the figure is 1.1e-06 cm/s.
`CC(C)C[C@H]1C(=O)N[C@@H](COC(C)(C)C)C(=O)N(C)[C@@H](Cc2ccccc2)C(=O)N(C)[C@@H](CC(C)C)C(=O)N[C@H](C(=O)N2CCCCC2)CC(=O)N[C@H](C(C)C)C(=O)N(C)[C@@H](C(C)C)C(=O)N[C@@H](Cc2ccc(C(F)F)cc2)C(=O)N(C)[C@@H](CC(C)C)C(=O)N[C@@H]([C@@H](C)O)C(=O)N(C)CC(=O)N1C` [pd472] ([dV][NMeV][Phe(4-CHF2)][NMeL]T[Sar][NMeL]S(tBu)[NMeF][NMeL]D-Piperidide; lactam N-11) returned a Caco-2 of 1.1e-06 cm/s.
In turn, `CC(C)C[C@H]1C(=O)N[C@@H](COC(C)(C)C)C(=O)N(C)[C@@H](Cc2ccccc2)C(=O)N(C)[C@@H](CC(C)C)C(=O)N[C@H](C(=O)N2CCCCC2)CC(=O)N[C@H](C(C)C)C(=O)N(C)[C@@H](C(C)C)C(=O)N[C@@H](Cc2ccc(OC(F)F)cc2)C(=O)N(C)[C@@H](CC(C)C)C(=O)N[C@@H]([C@@H](C)O)C(=O)N(C)CC(=O)N1C` [pd476] ([dV][NMeV]Y(CHF2)[NMeL]T[Sar][NMeL]S(tBu)[NMeF][NMeL]D-Piperidide; lactam N-11) returned a Caco-2 of 1.1e-06 cm/s.
In the case of `CCCCN1CC(=O)N(C)[C@@H](CC(C)C)C(=O)N[C@H](C(=O)N2CCCCC2)CC(=O)N(C)[C@@H](CC)C(=O)N[C@H](CC(C)C)C(=O)N(C)[C@@H](CC(C)C)C(=O)N(C)[C@@H](Cc2ccccc2)C(=O)N[C@@H](COCCN2CCOCC2)C(=O)N(C)[C@H](CC)C(=O)N(C)[C@@H](CC(C)C)C(=O)N[C@@H]([C@@H](C)O)C1=O` [pd482] ([NMeAbu][dL][NMeL][NMeF]S(Ethyl(2-morpholino))[dNMeAbu][NMeL]T[NBuGly][NMeL]D-Piperidide; lactam N-11) it was 1.1e-06 cm/s.
As for `CCCCN1CC(=O)N(C)[C@@H](Cc2ccccc2)C(=O)N(C)[C@@H](CC(C)C)C(=O)N[C@@H](CC(C)C)C(=O)N(C)[C@@H](CC(C)C)C(=O)N[C@H](C(=O)N2CCCCC2)CC(=O)N(C)CC(=O)N(C)[C@@H](CC)C(=O)N[C@@H](C(C)C)C(=O)N(C)[C@@H](CC(C)C)C(=O)N[C@@H](COCCN2CCOCC2)C1=O` [pd486] ([Sar][NMeAbu]V[NMeL]S(Ethyl(2-morpholino))[NBuGly][NMeF][NMeL]L[NMeL]D-Piperidide; lactam N-11), the figure is 1.1e-06 cm/s.
The molecule `CCCCN1CC(=O)N(C)[C@@H](CC(C)C)C(=O)N[C@H](C(=O)N2CCCCC2)CC(=O)N(C)[C@@H](C)C(=O)N[C@@H](COC[C@@H](C)O)C(=O)N(C)[C@H](CC(C)C)C(=O)N(C)[C@@H](Cc2cccc(Cl)c2)C(=O)N[C@@H](CC(C)C)C(=O)N(C)[C@@H](Cc2ccccc2)C(=O)N(C)[C@@H]([C@@H](C)CC)C(=O)N[C@@H]([C@@H](C)O)C1=O` [pd489] ([NMeA]S(Propyl(2R-OH))[dNMeL][NMePhe(3-Cl)]L[NMeF][NMeI]T[NBuGly][NMeL]D-Piperidide; lactam N-11) showed a Caco-2 of 1.1e-06 cm/s.
Take `CC[C@H](C)[C@H]1C(=O)N[C@@H]([C@@H](C)O)C(=O)N(C)CC(=O)N(C)[C@@H](CC(C)C)C(=O)N[C@H](C(=O)N2CCCCC2)CC(=O)N(C)[C@@H](C(C)C)C(=O)N[C@@H](COC[C@@H](C)O)C(=O)N(C)[C@H](CC(C)C)C(=O)N(C)[C@@H](Cc2cccc(Cl)c2)C(=O)N[C@@H](CC(C)C)C(=O)N(C)[C@@H](Cc2ccccc2)C(=O)N1C` [pd491] ([NMeV]S(Propyl(2R-OH))[dNMeL][NMePhe(3-Cl)]L[NMeF][NMeI]T[Sar][NMeL]D-Piperidide; lactam N-11): the Caco-2 is 1.1e-06 cm/s.
The molecule `CC(C)C[C@H]1C(=O)N[C@@H](C(C)C)C(=O)N(C)[C@@H](Cc2ccccc2)C(=O)N(C)[C@@H](Cc2ccccc2)C(=O)N[C@@H](COC(C)(C)C)C(=O)N(C)[C@@H](CC(C)C)C(=O)N[C@@H](COCCO)C(=O)N(C)[C@@H](CC(C)C)C(=O)N(C)[C@@H](CC(C)C)C(=O)N[C@H](C(=O)N2CCCCC2)CC(=O)N(C)CCCC(=O)N1C` [pd498] ([NMeGABA][NMeL]V[NMeF][NMeF]S(tBu)[NMeL]S(Ethyl(2-OH))[NMeL][NMeL]D-Piperidide; lactam N-11) came in with a Caco-2 of 1.1e-06 cm/s.
